How the values were obtained:
[1] = system: Alpha hemolytic streptococci; assay: Sensitivity panel on organism isolated from mare endometrium; type: cell-based; conditions: isolate from endometrium of 16 year old Quarter Horse mare
From the text: (§1) The microscopic findings from the lab were described as mild to moderate diffuse acute superficial […], Grade IIA endometrium. The lab also isolated Escherichia coli and Alpha-hemolytic streptococci. The sensitivity panel yielded the results in Table 1.

[2] = system: Escherichia coli; assay: as above; type: cell-based; conditions: isolate from endometrium of 16 year old Quarter Horse mare
From the text: as §1

Row | Molecule | Sensitivity Panel, Alpha hemolytic streptococci organism isolated [1] | Sensitivity Panel, Escherichia coli Organism Isolated [2]
1 | NCC[C@H](O)C(=O)N[C@@H]1C[C@H](N)[C@@H](O[C@H]2O[C@H](CN)[C@@H](O)[C@H](O)[C@H]2O)[C@H](O)[C@H]1O[C@H]1O[C@H](CO)[C@@H](O)[C@H](N)[C@H]1O [Amikacin] | Resistant | Sensitive
2 | CC1(C)S[C@@H]2[C@H](NC(=O)[C@H](N)c3ccccc3)C(=O)N2[C@H]1C(=O)O [Ampicillin] | Sensitive | Intermediate
3 | Cc1nnc(SCC2=C(C(=O)O)N3C(=O)[C@@H](NC(=O)Cn4cnnn4)[C@H]3SC2)s1 [Cefazolin] | Sensitive | Sensitive
4 | CO/N=C(\C(=O)N[C@@H]1C(=O)N2C(C(=O)O)=C(CSC(=O)c3ccco3)CS[C@H]12)c1csc(N)n1 [Ceftiofur] | Sensitive | Sensitive
5 | CCN1CCN(c2cc3c(cc2F)c(=O)c(C(=O)O)cn3C2CC2)CC1 [Enrofloxacin] | Sensitive | Sensitive
6 | CC[C@H]1OC(=O)[C@H](C)[C@@H](O[C@H]2C[C@@](C)(OC)[C@@H](O)[C@H](C)O2)[C@H](C)[C@@H](O[C@@H]2O[C@H](C)C[C@H](N(C)C)[C@H]2O)[C@](C)(O)C[C@@H](C)C(=O)[C@H](C)[C@@H](O)[C@]1(C)O [Erythromycin] | Sensitive | –
7 | CS(=O)(=O)c1ccc([C@@H](O)[C@@H](CF)NC(=O)C(Cl)Cl)cc1 [Florfenicol] | – | Sensitive
8 | CO[C@H]1/C=C/O[C@@]2(C)Oc3c(C)c(O)c4c(O)c(c(/C=N/N5CCN(C)CC5)c(O)c4c3C2=O)NC(=O)/C(C)=C\C=C\[C@H](C)[C@H](O)[C@@H](C)[C@@H](O)[C@@H](C)[C@H](OC(C)=O)[C@@H]1C [Rifampin] | Sensitive | –
9 | CC1(C)S[C@@H]2[C@H](NC(=O)[C@H](C(=O)O)c3ccsc3)C(=O)N2[C@H]1C(=O)O [Ticarcillin] | Sensitive | Sensitive
10 | Gentamicin | Resistant | Sensitive
11 | TMP/Sulfa | Sensitive | Resistant
12 | Trimmicosin | – | Intermediate

Source: patent US9867836B2, “Lavage and/or infusion using CSA compounds for increasing fertility in a mammal” (priority 2014, dated 2018)
